# Test results from article PMC9490236, “Accurate de novo design of membrane-traversing macrocycles” (Cell, 2022).
# “And” between values parts separate entries of the source, which are not always exact repeats. Equal values may be shown once. Read-outs that look alike come from different tables or passages of the source. Where a SMILES comes first, the peptide text is derived from it. [ ]: non-standard residue; d: D form. dNMeI = CC[C@@H](C)[C@@H](NC)C(=O)O; NMeL = CN[C@@H](CC(C)C)C(=O)O
# Assay: Pharmacokinetics and oral bioavailability of D11.3 in male Swiss albino mice (IV, PO, SQ)
# Type: in vivo
# Settings: for MRT last: read-out: MRT0-last
# Description: In vivo bioavailability assays were conducted in mice and rats. D8.3.p1 and D10.1 were studied in female Balb/C mice by van Voorhis group at University of Washington. D11.2 was evaluated in Sprague Dawley (SD) rats by Robert Griffin’s group at Takeda Pharmaceuticals. D11.3 was studied in the male swiss albino mice by the contract research organization, GVK Biosciences Pvt. Ltd., Hyderabad, India. All animals used in these studies were handled in strict accordance with practices made to minimize suffering. All animal experiments conducted at the University of Washington, USA, and Takeda Pharmaceuticals, USA were approved by the Institutional Animal Care and Use Committee. Animal studies at GVK Biosciences were reviewed and approved by the Institutional Animal Ethics Committee of GVK Biosciences.
# We selected four designed macrocycles with diverse structures and in vitro rates of permeability for in vivo oral bioavailability studies in the rodent models. Due to the intensive resource requirements for such studies, these studies were conducted by three different research groups. D8.3.p1 and D10.1 were studied in female Balb/C mice by van Voorhis group at University of Washington. D11.2 was evaluated in Sprague Dawley (SD) rats by Robert Griffin’s group at Takeda Pharmaceuticals. D11.3 was studied in the male swiss albino mice by the contract research organization, GVK Biosciences Pvt. Ltd., Hyderabad, India.
# Pharmacokinetic properties of D11.3 were evaluated by the contract research organization, GVK Bio in Swiss Albino male mice after dosing the peptides through oral gavage (PO), subcutaneous (SQ), and intravenous (IV) routes. Plasma samples were collected at multiple time points up to 24 hours. Animals were dosed with 27 gauge needle through tail vein for IV, gastric gavage needle for PO, and 27 gauge needle on dorsal side for SQ. Plasma concentrations were determined using LC-MS/MS based quantification. Pharmacokinetic parameters were determined using non-compartmental analysis with Phoenix software version 8.1.
# Dosing vehicle: DMSO (10%) + 10% solutol in PBS (90%) (IV, PO, SQ)
# Dose volume: […] (PO, SQ); […] (IV)
# Dose: 10 mg/kg (PO) 1 mg/kg (IV), 5mg/kg (SQ)
# [1] = male, Swiss albino, mouse, plasma, IV 1.00 mg/kg
# [2] = male, Swiss albino, mouse, plasma, PO 10.00 mg/kg
# [3] = male, Swiss albino, mouse, plasma, SC 5.00 mg/kg
smiles,measurement,setting,value
"CC[C@@H](C)[C@H]1NC(=O)[C@H]([C@@H](C)CC)NC(=O)[C@H](CC(C)C)N(C)C(=O)[C@H]2CCCN2C(=O)[C@@H]([C@H](C)CC)NC(=O)[C@@H]([C@H](C)CC)N(C)C(=O)[C@H](CC(C)C)NC(=O)[C@H]2CCCN2C(=O)[C@@H]2CCCN2C(=O)[C@H](C(C)C)NC(=O)[C@H]2CCCN2C1=O [Design D11.3, VAL PRO DPRO LEU *DILE DILE DPRO *LEU ILE DILE DPRO] (cyclo(I[dI][dP]VP[dP]L[dNMeI][dI][dP][NMeL]))",AUCExtra,IV 1.00 mg/kg,3.09%
same,Plasma concentration,"IV 1.00 mg/kg, 0.25 h, individual mice M1, M2, M3, 1 mg/kg",3305.02 ng/mL and 3779.15 ng/mL and 2973.54 ng/mL
same,Plasma concentration,"IV 1.00 mg/kg, 1 h, individual mice M1, M2, M3, 1 mg/kg",931.71 ng/mL and 1218.22 ng/mL and 1283.47 ng/mL
same,Plasma concentration,"IV 1.00 mg/kg, 3 h, individual mice M1, M2, M3, 1 mg/kg",887.86 ng/mL and 328.77 ng/mL and 318.62 ng/mL
same,Plasma concentration,"IV 1.00 mg/kg, 5 h, individual mice M1, M2, M3, 1 mg/kg",240.02 ng/mL and 271.55 ng/mL and 289.17 ng/mL
same,Plasma concentration,"IV 1.00 mg/kg, 8 h, individual mice M1, M2, M3, 1 mg/kg",399.46 ng/mL and 124.26 ng/mL and 182.53 ng/mL
same,Plasma concentration,"IV 1.00 mg/kg, 24 h, individual mice M1, M2, M3, 1 mg/kg",17.65 ng/mL and 30.97 ng/mL and 34.16 ng/mL
same,health of animals during the study,"IV 1 mg/kg, PO 10 mg/kg, SQ 5 mg/kg",healthy throughout the duration of the study
same,AUCExtra,PO 10.00 mg/kg,1.91%
same,Plasma concentration,"PO 10.00 mg/kg, 0.08 h, individual mice M1, M2, M3, 10 mg/kg",47.49 ng/mL and 76.49 ng/mL and 84.94 ng/mL
same,Plasma concentration,"PO 10.00 mg/kg, 0.25 h, individual mice M1, M2, M3, 10 mg/kg",454 ng/mL and 804.64 ng/mL and 992.29 ng/mL
same,Plasma concentration,"PO 10.00 mg/kg, 0.5 h, individual mice M1, M2, M3, 10 mg/kg",2858.02 ng/mL and 2832.99 ng/mL and 1880.71 ng/mL
same,Plasma concentration,"PO 10.00 mg/kg, 1 h, individual mice M1, M2, M3, 10 mg/kg",2950.38 ng/mL and 3417.67 ng/mL and 2525.44 ng/mL
same,Plasma concentration,"PO 10.00 mg/kg, 3 h, individual mice M1, M2, M3, 10 mg/kg",3249.94 ng/mL and 3660.57 ng/mL and 3578.88 ng/mL
same,Plasma concentration,"PO 10.00 mg/kg, 5 h, individual mice M1, M2, M3, 10 mg/kg",3313.72 ng/mL and 2427.94 ng/mL and 1866.9 ng/mL
same,Plasma concentration,"PO 10.00 mg/kg, 8 h, individual mice M1, M2, M3, 10 mg/kg",1232.5 ng/mL and 1764.28 ng/mL and 1439.78 ng/mL
same,Plasma concentration,"PO 10.00 mg/kg, 24 h, individual mice M1, M2, M3, 10 mg/kg",177.35 ng/mL and 48.47 ng/mL and 59.29 ng/mL
same,AUCExtra,SC 5.00 mg/kg,30.33%
same,Plasma concentration,"SC 5.00 mg/kg, 0.08 h, Mean",10.15 ng/mL
same,Plasma concentration,"SC 5.00 mg/kg, 0.25 h, Mean",35.04 ng/mL
same,Plasma concentration,"SC 5.00 mg/kg, 0.5 h, Mean",38.67 ng/mL
same,Plasma concentration,"SC 5.00 mg/kg, 0.5 h, individual mice M1, M2, M3, 5 mg/kg",23.29 ng/mL and 70.26 ng/mL and 22.46 ng/mL
same,Plasma concentration,"SC 5.00 mg/kg, 1 h, individual mice M1, M2, M3, 5 mg/kg",52.72 ng/mL and 45.05 ng/mL and 34.59 ng/mL
same,Plasma concentration,"SC 5.00 mg/kg, 3 h, individual mice M1, M2, M3, 5 mg/kg",141.22 ng/mL and 103.85 ng/mL and 139.25 ng/mL
same,Plasma concentration,"SC 5.00 mg/kg, 24 h, Mean",50.51 ng/mL
same,level at 0.08 h,"male, Swiss Albino, mouse, plasma, iv, 1 mg/kg, IV 1.00 mg/kg, 0.08 h, individual mice M1, M2, M3, read-out: Plasma concentration",3320 ng/mL
same,level at 0.5 h,"male, Swiss Albino, mouse, plasma, iv, 1 mg/kg, IV 1.00 mg/kg, 0.5 h, individual mice M1, M2, M3, read-out: Plasma concentration",2570 ng/mL
same,level at 5 h,"male, Swiss albino, mouse, plasma, sc, 5 mg/kg, SC 5.00 mg/kg, 5 h, individual mice M1, M2, M3, read-out: Plasma concentration",117 ng/mL
same,level at 8 h,"male, Swiss albino, mouse, plasma, sc, 5 mg/kg, SC 5.00 mg/kg, 8 h, individual mice M1, M2, M3, read-out: Plasma concentration",153 ng/mL
same,AUC(0-inf),[1],7190 ng·h/mL
same,AUC(0-t),[1],6970 ng·h/mL
same,C0,[1],3960 ng/mL
same,Vd,[1],1.12 L/kg
same,clearance,[1],2.32 mL/min/kg
same,AUC(0-inf),[2],28800 ng·h/mL
same,AUC(0-t),[2],28200 ng·h/mL
same,Cmax,[2],3500 ng/mL
same,Tmax,[2],3 h
same,bioavailability,"male, Swiss albino, mouse, plasma, PO 10.00 mg/kg vs IV 1.00 mg/kg, read-out: F (oral bioavailability)",40% and 40.1%
same,AUC(0-inf),[3],3050 ng·h/mL
same,AUC(0-t),[3],2120 ng·h/mL
same,Cmax,[3],148 ng/mL
same,Tmax,[3],5 h
same,half-life,"mouse, in vivo, IV 1.00 mg/kg",5.58 h
same,MRT last,"mouse, in vivo, IV 1.00 mg/kg",4.64 h
same,MRT last,"mouse, in vivo, PO 10.00 mg/kg",6.32 h
same,MRT last,"mouse, in vivo, SC 5.00 mg/kg",10.7 h
